Paper PMC9848351, “Discovery of new pyridine-quinoline hybrids as competitive and non-competitive PIM-1 kinase inhibitors with apoptosis induction and caspase 3/7 activation capabilities” (Journal of Enzyme Inhibition and Medicinal Chemistry, 2023)

Legend:
[1] = tested on: normal human lung fibroblast Wi-38 cell line; test: MTT cytotoxicity on normal cells; type: cell-based; conditions: for EC50 / IC50: Homo sapiens; for EC50 / Wi-38 EC100: Wi-38, 72 h, MTT, mean ± SEM; for EC50: 50% cell viability; for IC50: Wi-38, MTT, read-out: IC50 on human lung fibroblasts (Wi-38); for Wi-38 EC100: safe dose, 100% cell viability
Method in brief: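 Wi-38 fibroblasts in DMEM with 10% FBS were seeded at 5x10^3 cells/well, left 24 h to attach, then exposed to serial compound concentrations for 72 h at 37 °C, 5% CO2. MTT was added for 3 h, formazan dissolved in DMSO and absorbance read at 570 nm. IC50 and EC100 (safe dose) were estimated from the concentration series.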

[2] = tested on: liver cancer cell line (HepG-2); test: MTT anticancer activity, HepG-2; type: cell-based, human; conditions: for IC50: Homo sapiens, HepG2, HepG-2, 72 h, MTT, mean ± SEM; for activity against HepG-2 compared to the reference: fold versus doxorubicin IC50
Method in brief: (§1)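 Cells seeded at 5x10^3/well (Caco-2 in DMEM, others in RPMI-1640, 10% FBS) and exposed to serial compound concentrations for 72 h at 37 °C, 5% CO2, starting 24 h after seeding. MTT (3 h, 37 °C) read at 570 nm after DMSO solubilisation; IC50 calculated from viability.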

[3] = tested on: Colon cancer cells (Caco-2); test: MTT anticancer activity, Caco-2; type: cell-based, human; conditions: for IC50: Homo sapiens, Caco-2, 72 h, MTT, mean ± SEM; for Caco-2 LE: ligand efficiency from IC50 and number of heavy atoms; for Caco-2 LLE: ligand lipophilic efficiency, potency in terms of lipophilicity; for Caco-2 SI: selectivity index, Wi-38 versus Caco-2
Method in brief: as §1

Caco-2 = test: Flow cytometric annexin V/PI analysis of apoptosis, Caco-2; type: cell-based; conditions: IC50 of compound, 72 h, mean ± SEM
Experimental: The apoptosis-dependent […] was determined by quantification of annexin-stained apoptotic cells using the FITC signal detector (FL1) against the phycoerythrin emission signal detector (FL2) (Supplementary Page S55). […]
MTT method was used for assaying cell viability 25. Twenty microliters of 5 mg/ml MTT (Sigma, USA) was added to each well and the plate was incubated at 37 °C for 3 h. Then MTT solution was removed, 100 µl DMSO was used and the absorbance of each well was measured with a microplate reader ( BMG LabTech, […]
Germany) at 570 nm. […]
Graphpad Instat software.
Determination of the anticancer activity
Anticancer effect of the above-mentioned compounds was evaluated using four human […]
cancer cell lines. […]
All cancer cells (5x10^3 cells/well) were seeded in sterile
96-well plates. After 24h, serial concentrations of the tested compounds and Dox were incubated with four cancer cell lines for 72 h at 37 °C in 5% CO2 incubator. MTT method was done as described above. The Graphpad Instat software was used for calculating the half maximal inhibitory concentration (IC50) values. […]
Flow cytometric analysis of apoptosis
Caco-2, PC-3 and NFS-60 cell lines. After trypsinization, the untreated and treated cells were incubated with annexin V/PI for 15 min. Then cells were fixed and incubated with streptavidin-fluorescein (5 µg/mL) for 15 min. The apoptosis-dependent anticancer effect was determined by quantification of annexin-stained apoptotic cells using the FITC signal detector (FL1) against the phycoerythrin emission signal detector (FL2). […]

| Compound | IC50 [2] [nM] | IC50 [3] [nM] | Caco-2 LE [3] | Caco-2 LLE [3] | EC50 [1] [nM] | IC50 [1] [nM] | Wi-38 EC100 [1] [µM] | Caco-2 SI [3] | total percentage of the apoptotic cell population, Caco-2 (Caco-2) [%] | activity against HepG-2 compared to the reference [2] |
| --- | --- | --- | --- | --- | --- | --- | --- | --- | --- | --- |
| N#Cc1c(-c2cc3cc(Cl)ccc3nc2N2CCOCC2)cc(-c2cccc(O)c2)[nH]c1=O [5b, 4-(6-Chloro-2-morpholin-4-yl-quinolin-3-yl)-6-(3-hydroxyphenyl)-2-oxo-1,2-dihydropyridine-3-carbonitrile] | 5.28 ± 0.1 | 45.3 ± 1 | 0.30 | 3.28 | 171 ± 2 | > 99 | 0.048 ± 0.0001 | 3.775 | 44.045 ± 0.185 |  |
| COc1ccc2nc(N3CCOCC3)c(-c3cc(-c4cccc(O)c4)[nH]c(=O)c3C#N)cc2c1 [5c, 6-(3-Hydroxyphenyl)-4-(6-methoxy-2-morpholin-4-yl-quinolin-3-yl)-2-oxo-1,2-dihydropyridine-3-carbonitrile] | 7.6 ± 0.1 | 36.1 ± 0.1 | 0.30 | 4.00 | 717 ± 2 | > 99 | 0.361 ± 0.014 | 19.861 | 33.89 ± 0.175 |  |
| N#Cc1c(-c2cc3ccccc3[nH]c2=O)cc(-c2cccc(O)c2)[nH]c1=O [13a, 6-(3-Hydroxyphenyl)-2-oxo-4-(2-oxo-1,2-dihydroquinolin-3-yl)-1,2-dihydropyridine-3-carbonitrile] | 2.38 | 22.8 ± 1 | 0.39 | 5.31 | 25.5 ± 4 |  | 0.0145 ± 0.0001 | 1.118 | 58.28 ± 0.26 | twenty-one-fold more active |

The next lines start with results.

| IC50 [2] [nM] | IC50 [3] [nM] | Caco-2 LE [3] | Caco-2 LLE [3] | Compound | EC50 [1] [nM] | IC50 [1] [nM] | Wi-38 EC100 [1] [µM] | Caco-2 SI [3] | total percentage of the apoptotic cell population, Caco-2 (Caco-2) [%] | activity against HepG-2 compared to the reference [2] |
| --- | --- | --- | --- | --- | --- | --- | --- | --- | --- | --- |
| 3.77 ± 0.1 | 33.7 ± 6 | 0.35 | 5.11 | COc1ccc2[nH]c(=O)c(-c3cc(-c4cccc(O)c4)[nH]c(=O)c3C#N)cc2c1 [13c, 6-(3-Hydroxyphenyl)-4-(6-methoxy-2-oxo-1,2-dihydroquinolin-3-yl)-2-oxo-1,2-dihydropyridine-3-carbonitrile] | 34.8 ± 3 |  | 0.0242 ± 0.001 | 1.033 | 51.17 ± 0.33 | thirteen-fold high |
| 12.7 | 14.1 ± 4 | 0.40 | 5.18 | N#Cc1c(-c2cc3ccccc3[nH]c2=O)cc(-c2cccc(O)c2)nc1S [14a, 6-(3-Hydroxyphenyl)-2-mercapto-4-(2-oxo-1,2-dihydroquinolin-3-yl)pyridine-3-carbonitrile] | 299 ± 4 |  | 0.134 ± 0.003 | 21.206 | 42.17 ± 0.82 |  |
